Usually IC90 stands for the concentration needed for an effect of 90%.

For one data set, the target named is T1, ΔAGT (G156A) (Homo sapiens, UniProt P16455, G156A).
T1 sequence (P16455 1-207 G156A): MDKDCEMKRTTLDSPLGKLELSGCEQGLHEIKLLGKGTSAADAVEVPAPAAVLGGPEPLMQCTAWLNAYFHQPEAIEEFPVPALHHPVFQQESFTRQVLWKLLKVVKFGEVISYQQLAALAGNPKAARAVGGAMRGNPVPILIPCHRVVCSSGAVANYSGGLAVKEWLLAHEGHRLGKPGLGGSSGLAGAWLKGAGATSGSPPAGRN
As to the kind of experiment: cell-based. As to conditions: K562, read-out: AGT activity retained.

In data set [1] the test system is CHO cells expressing G156A AGT. The experiment in a line: Sensitization to killing by 80 μM BCNU, colony forming assay, CHO cells expressing G156A AGT. Type of data set: cell-based, Chinese hamster. The procedure: (§1) FIG. 6a and FIG. 6b show the effect of different concentrations of BG (FIG. 6a) and 5-nitroso-BP (FIG. 6b) on killing of cells by BCNU. Cells were treated with BG or 5-nitroso-BP at the concentrations indicated for 2 h and BCNU at 80 μM was added for 2 h. Medium was replaced with fresh medium also containing the AGT inhibitor but not BCNU for the period of 18 h. The cells were then replated as described in materials and methods and colonies were counted 7-8 days later.
(§2) Cytotoxicity assays--Cell killing was determined using a colony forming assay (Pegg, et al., 1995, Biochem. Pharmacol. 50: 1141-1148; Dolan, et al., 1986, Cancer Res. 46: 4500-4504). The cells were plated using 10^6 cells per 25 cm^2 flask and grown for 24 h. After 2 h of incubation with either BG or 5-nitroso-BP, 80 μM BCNU was added for 2 h. The medium was then replaced with fresh medium also containing the AGT inactivator and the cells were left at 37° C. for an additional 16-18 h. The cells were then replated at densities of 100 to 1000 cells per 25 cm^2 flask and grown for 7-8 days until discrete colonies could be stained and counted. The colonies were washed with 0.9% saline and stained with crystal violet and counted.

In data set [2] the test system is CHO cells expressing control AGT. The experiment in a line: Sensitization to killing by 80 μM BCNU, colony forming assay, CHO cells expressing control AGT. The following applies: with 80 μM BCNU. Type of data set: cell-based, Chinese hamster. The procedure:
as §1, §2

The next data set has as its target T2, human AGT mutant G156A (Homo sapiens, UniProt P16455, G156A).
T2 construct: expressed in transfected cells; host or cells: Chinese hamster ovary (CHO) cells
T2 sequence (P16455 1-207 G156A): T1 sequence (P16455 1-207 G156A)
As to the kind of experiment: Inactivation of cellular AGT in CHO cells expressing mutant G156A (CHO-G156A). In kind it is cell-based. The following applies: for Increase of ED50 with G156A AGT: relative to control AGT in CHO cells, 240 min. The procedure:
(§3) The cells were then harvested and the AGT activity determined.
(§4) AGT activity assays--Extracts were prepared and AGT activity was determined as described by Dolan et al. (Dolan, et al., 1990, Proc. Natl. Acad. Sci. U.S.A. 87: 5368-5372) by incubation for 30 min at 37° C. with a [^3 H]methylated calf thymus DNA substrate prepared by reaction of DNA with N-[^3 H]methyl-N-nitrosourea (Amersham Inc., Arlington Hts., Ill.). The AGT activity of the cells was then expressed as fmol of O^6 -methylguanine removed per mg of protein present in the cell extracts. Protein was determined by the method of Bradford (Bradford, 1976, Anal. Biochem. 72: 248-254). […] After 4 h exposure, the cells were harvested and washed with PBS. Cell pellets were stored at -80° C. until assayed. Extracts were then prepared and AGT activity determined. The results were expressed as the percentage of the AGT activity present in cultures to which no drug was added.

For another data set, the target named is T3, human AGT mutant P140A (Homo sapiens, UniProt P16455, P140A).
T3 construct: expressed in transfected cells; host or cells: Chinese hamster ovary (CHO) cells
T3 sequence (P16455 1-207 P140A): T1 sequence (P16455 1-207 G156A) with P140A, A156G
The experiment in a line: Inactivation of cellular AGT in CHO cells expressing mutant P140A (CHO-P140A). In kind it is cell-based. As to conditions: for Increase of ED50 with P140A AGT: relative to control AGT in CHO cells, 240 min. The procedure: as §3, §4

For data set [3], the system named is AGT. As to conditions: HT29 cells; read-out: Inactivation of AGT, ED50 after 4 h exposure; cited from earlier work.
In a further data set the target is T4, wtAGT (Homo sapiens, UniProt P16455).
T4 sequence (P16455 1-207): T1 sequence (P16455 1-207 G156A) with A156G
As to the kind of experiment: BG inactivation of AGT in wtMGMT transduced K562 cells. The following applies: 5 μM BG.

The test system of data set [4] is CHO cells expressing P140A AGT. The experiment in a line: Sensitization to killing by 80 μM BCNU, colony forming assay, CHO cells expressing P140A AGT. Type of data set: cell-based, Chinese hamster. The following applies: with 80 μM BCNU. As for the experimental part:
as §1, §2

Data set [5] relates to ΔMGMT transduced CD34^+ cells. The experiment in a line: Clonogenic progenitor survival after BG and BCNU, ΔMGMT transduced CD34+ cells. As for the experimental part: (§5) CD34^+ Transduction--Peripheral blood mononuclear cells were obtained by apheresis from patients treated with cyclophosphamide and G-CSF. CD34^+ progenitors were isolated using the Ceprate SC Stem Cell Concentrator (Cell Pro, Bothell, Wash.) according to manufacturer's directions. Briefly, cells were washed and incubated with biotinylated anti-CD34 antibody, passed over an avidin column and the bound fraction eluted by gentle agitation. […] At 48 hours, half of the media was removed, cells were pelleted and resuspended in fresh, supplemented media, and non-adherent cells were collected at 96 hours.
(§6) BCNU was dissolved in 100% ethanol and diluted to 10 mM with serum free media and immediately added to the cells. Following a two hour incubation at 37° C., cells were incubated in methylcellulose (Stem Cell Technologies, Inc.) containing either SCF, IL3, hemin, erythropoietin, GM-CSF (for CD34^+ cells) or GM-CSF and IL-3 (for K562 cells) in triplicate. […] After incubation for 7-10 days at 37° C. colonies were enumerated and survival was analyzed at each BCNU dose.

Data set [6] deals with ΔMGMT transduced K562 cells. The experiment in a line: Clonogenic survival in methylcellulose after BG and BCNU, ΔMGMT transduced K562 cells. Type of data set: cell-based, human.
For another data set, the system named is Control CHO cells. As to the kind of experiment: Colony forming assay, killing of control CHO cells by BCNU. As to conditions: 2 h, after 80 μM BCNU, read-out: survival. In kind it is cell-based, Chinese hamster. The procedure:
(§7) Control CHO cells (.tangle-solidup.) and CHO cells expressing human AGT (.smallcircle.) or its mutants P140A (.circle-solid.) and G156A (.quadrature.) were treated with BCNU at the concentration shown for 2 h. The medium was then replaced. After 16-18 h, the cells were replated as described in Example Section 6 and colonies were counted 7-8 days later.
as §2

For data set [7], the system named is wtMGMT transduced K562 cells. As to the kind of experiment: Clonogenic survival in methylcellulose after BG and BCNU, wtMGMT transduced K562 cells. Type of data set: cell-based, human.
Data set [8] concerns CHO cells expressing control or mutant AGT. The experiment in a line: Colony forming assay, killing by BCNU of transfected CHO cells expressing control or mutant AGT. The following applies: up to 100 μM BCNU, highest concentration tested. In kind it is cell-based, Chinese hamster. As for the experimental part: as §7, §2
The next data set relates to untransduced K562 cells. The experiment in a line: Clonogenic survival in methylcellulose after BG and BCNU, untransduced K562 cells. In kind it is cell-based. The following applies: Homo sapiens.
The test system of data set [9] is lac Z transduced hematopoietic progenitor cells. As to the kind of experiment: Clonogenic progenitor survival after BG and BCNU, lac Z transduced CD34+ cells. As to conditions: 10 μM BG and 10 μM BCNU, lac Z transduced progenitors. As for the experimental part: as §5, §6
Data set [10] deals with T5, AGT (Homo sapiens, UniProt P16455).
T5 sequence (P16455 1-207): T1 sequence (P16455 1-207 G156A) with A156G
The experiment in a line: In vitro screen of potential AGT-inhibiting BG analogs. As to conditions: versus BG and BGs modified at the benzyl ring. An excerpt:
(§8) Another embodiment of the present invention relates to the use of a mutant AGT protein, preferably a human AGT protein, resistant to inactivation by a compound shown to inactivate or at least substantially inactivate the DNA repair function of wild type AGT which include, but again are in no way limited to the O^6 -substituted guanosine and 2' deoxyguanisine compounds disclosed in U.S. Pat. No. 5,352,669 issued to Moschel, et al. on Oct. 4, 1994. […] Furthermore, escalation of the dBG dose was not restricted by solubility as with BG. Therefore, this class of compounds, as exemplified by dBG, will be useful in practicing the present invention whereby the skilled artisan identifies a related AGT mutant which imparts resistance to addition of dBG both in vitro and in vivo.

Data set [11] can be described thus: Solubility in aqueous media. Type of data set: physicochemical.
Description: as §8

The next data set relates to xenograft. As to the kind of experiment: In vivo xenograft system, potentiation of BCNU.
Description: as §8

The test system of data set [12] is CHO cells expressing mutant AGTs. As to the kind of experiment: Effect of AGT inhibitors alone on colony formation. In kind it is cell-based, Chinese hamster. The following applies: inhibitor alone, 18-20 h, cells expressing G156A. The procedure:
FIG. 5 show the effect of different concentrations of BG and 5-nitroso-BP on colony formation. BG was added to CHO cells expressing mutant AGTs P140 (.circle-solid.) and G156A (.quadrature.) and 5-nitroso-BP was added to cells expressing G156A (.box-solid.) for 18-20 h. The cells were then replated as described in materials and methods and colonies were counted 7-8 days later.
as §2

For data set [13], the target named is T5, AGT. As to the kind of experiment: Inactivation of cellular AGT in CHO cells expressing human AGT (CHO-AGT). In kind it is cell-based. The arrangement: expressed in transfected cells; host or cells: Chinese hamster ovary (CHO) cells. The following applies: read-out: Inactivation of AGT, ED50 after 4 h exposure. As for the experimental part:
as §3, §4

[14] abbreviates: Homo sapiens, K562, read-out: BCNU IC50, clonogenic survival.
Setting [15] is: Homo sapiens, K562, read-out: BCNU IC90, clonogenic survival.

Changes are numbered by the printed parent chain. Some results are limits rather than exact numbers.

As to `Nc1nc(OCc2ccccc2)c2[nH]cnc2n1` [BG, O^6 -benzylguanine], the activity at 5 µM on ΔAGT (G156A) was > 90%. Also, in [1] (350 μM BG with 80 μM BCNU), the “survival under combined BG and BCNU” value is recorded as “substantial survival”. For the same molecule, the “concentration required to reduce colony formation to <1 per 1000 cells plated” value in [2] came out at 50 µM. At human AGT mutant G156A, the “Increase of ED50 with G156A AGT” value is recorded as 60 fold. On human AGT mutant P140A, the “Increase of ED50 with P140A AGT” value was found to be 30 fold. In addition, the IC50 in the data set on AGT [3] is 0.05 µM. Further, the AGT activity entry on wtAGT is “undetectable”. The “concentration needed to reduce colony formation to <1 per 1000 cells plated” value in [4] was determined as 200 µM.

Consider `O=NN(CCCl)C(=O)NCCCl` [BCNU, N,N'-bis(2-cholorethyl)-N-nitrosourea], for which, in data set [5] (10 μM BG and 10 μM BCNU, ΔMGMT transduced CD34+), the cells resistant result is “approximately 25%”. Also, the “colonies very resistant to BG & BCNU” value in data set [5] (ΔMGMT transduced CD34+ derived colonies) is reported as “Over 30%”. Besides, the clonogenic survival in data set [6] (30 μM BCNU & BG, ΔMGMT K562 cells) was 20%; in [7] (30 μM BCNU & BG, wtMGMT K562 cells), < 1%. Further, the IC50 in [6] (setting [14]) turned out to be 11.3 µM; in data set [7] (setting [14]), 4 µM; with untransduced K562 cells (K562, read-out: BCNU IC50, clonogenic survival), 1.3 µM. Further, the 90% effect concentration (IC90) was > 30 µM in data set [6] (setting [15]); 16 µM in data set [7] (setting [15]); 5 µM in the data set on untransduced K562 cells (K562, read-out: BCNU IC90, clonogenic survival). Besides, the viability at 80 µM with Control CHO cells was < 0.1%. Moreover, in [8], the “killing by BCNU” value is “completely resistant”. Besides, the cells killed result in data set [9] is recorded as “greater than 99%”.

In the case of `Nc1nc(OCc2ccccc2)c2ncn([C@H]3C[C@H](O)[C@@H](CO)O3)c2n1` [dBG], the “potency relative to BG (less potent)” value at AGT [10] is on record as 10 fold. In addition, the “solubility in aqueous media compared to other BGs” value in data set [11] is “superior solubility”. The “BCNU-potentiating effects compared with BG” value in the data set on xenograft is “quite comparable”.

Regarding `Nc1nc(N)c(N=O)c(OCc2ccccc2)n1` [5-nitroso-BP, 2,4-diamino-6benzyloxy-5-nitrosopyrimidine], in data set [1] (with 80 μM BCNU), the “concentration required to sensitize cells to BCNU” value is > 40 µM. Also, in [2], the “concentration required to reduce colony formation to <1 per 1000 cells plated” value is listed as “about 5 μM”. The “concentrations reducing colony formation” value in data set [12] is recorded as “above 30 μM”. The IC50 at human AGT mutant G156A (CHO-G156A cells, read-out: Inactivation of AGT, ED50 after 4 h exposure) is 5 µM; at human AGT mutant P140A (CHO-P140A cells, read-out: Inactivation of AGT, ED50 after 4 h exposure), 1.25 µM; in the data set with AGT [3], 0.02 µM; at AGT [13] it was 0.05 µM. Also, the “Increase of ED50 with G156A AGT” value on human AGT mutant G156A turned out to be 100 fold. Further, the “Increase of ED50 with P140A AGT” value on human AGT mutant P140A came to 25 fold. For the same molecule, the “concentration needed to reduce colony formation to <1 per 1000 cells plated” value in data set [4] was “More than 25 μM”.
